Laboratory results published in PubChem BioAssay AID1963982 (Molecular Pharmacology Branch, DTP, NCI, 2024).

System: 313798-341-R-J2-PDC spheroids, viability
Assay: Anticancer human tumor 313798-341-R-J2-PDC patient-derived cervical squamous cell carcinoma cell line growth inhibition [PI3K]
Settings: spheroids with HUVEC and MSC; for IC50: curve of first compound; for viability, T/C: stronger effect = lower value; active = viability on the fitted dose curve at most 10% of control; inactive = the rest
In short: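 Viability of mixed-cell spheroids was determined after exposure to pairwise combinations, one partner being inavolisib, alpelisib, duvelisib or copanlisib. Highest tested concentration matched clinical Cmax where known and 10 microM where not, descending in half-log steps.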
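Note: spheroids exposed to compounds for seven days.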
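Throughout, for viability, T/C: 100% = DMSO vehicle control viability.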

CCCS(=O)(=O)Nc1ccc(F)c(C(=O)c2c[nH]c3ncc(-c4ccc(Cl)cc4)cc23)c1F + CC(Nc1ccc2c(c1)OCCn1cc(N3C(=O)OCC3C(F)F)nc1-2)C(N)=O
1.67 µM: IC50 (second compound 1 µM)
5.77 µM: IC50 (second compound 0.0316 µM)
3.56 µM: IC50 (second compound 0.316 µM)
4.97 µM: IC50 (second compound 0.1 µM)
inactive: viability, T/C (second compound 0.00316 µM, first compound 0.0316 µM) 90.6% | viability, T/C (second compound 0.00316 µM, first compound 0.1 µM) 98.7% | viability, T/C (second compound 0.00316 µM, first compound 0.316 µM) 88.4% | viability, T/C (second compound 0.00316 µM, first compound 1 µM) 114% | viability, T/C (second compound 0.00316 µM, first compound 3.16 µM) 97.9% | viability, T/C (second compound 0.00316 µM, first compound 10 µM) 11.9% | viability, T/C (second compound 0.01 µM, first compound 0.0316 µM) 99.1% | viability, T/C (second compound 0.01 µM, first compound 0.1 µM) 95.8% | viability, T/C (second compound 0.01 µM, first compound 0.316 µM) 98.7% | viability, T/C (second compound 0.01 µM, first compound 1 µM) 106% | viability, T/C (second compound 0.01 µM, first compound 3.16 µM) 104% | viability, T/C (second compound 0.0316 µM, first compound 0.0316 µM) 107% | viability, T/C (second compound 0.0316 µM, first compound 0.1 µM) 97.8% | viability, T/C (second compound 0.0316 µM, first compound 0.316 µM) 97.7% | viability, T/C (second compound 0.0316 µM, first compound 1 µM) 97.7% | viability, T/C (second compound 0.0316 µM, first compound 3.16 µM) 92.7% | viability, T/C (second compound 0.0316 µM, first compound 10 µM) 10.9% | viability, T/C (second compound 0.1 µM, first compound 0.0316 µM) 104% | viability, T/C (second compound 0.1 µM, first compound 0.1 µM) 92.6% | viability, T/C (second compound 0.1 µM, first compound 0.316 µM) 84.9% | viability, T/C (second compound 0.1 µM, first compound 1 µM) 92.6% | viability, T/C (second compound 0.1 µM, first compound 3.16 µM) 76% | viability, T/C (second compound 0.1 µM, first compound 10 µM) 9.75% | viability, T/C (second compound 0.316 µM, first compound 0.0316 µM) 74.6% | viability, T/C (second compound 0.316 µM, first compound 0.1 µM) 82.1% | viability, T/C (second compound 0.316 µM, first compound 0.316 µM) 79.7% | viability, T/C (second compound 0.316 µM, first compound 1 µM) 73.6% | viability, T/C (second compound 0.316 µM, first compound 3.16 µM) 54.9% | viability, T/C (second compound 1 µM, first compound 0.0316 µM) 50.5% | viability, T/C (second compound 1 µM, first compound 0.1 µM) 59.1% | viability, T/C (second compound 1 µM, first compound 0.316 µM) 59.5% | viability, T/C (second compound 1 µM, first compound 1 µM) 58% | viability, T/C (second compound 1 µM, first compound 3.16 µM) 41.6%
6 µM: IC50 (second compound 0.00316 µM) | IC50 (second compound 0.01 µM)
active: viability, T/C (second compound 0.01 µM, first compound 10 µM) 9.37% | viability, T/C (second compound 0.316 µM, first compound 10 µM) 8.5% | viability, T/C (second compound 1 µM, first compound 10 µM) 8.44%
